Source: patent publication EP4737450A1 (Longwood Pharmaceuticals (Hangzhou) Co., Ltd, priority 2023, dated 2025)
Read-outs that look alike come from different tables or passages of the source.

Target: T1, plasma kallikrein (PKa) (Homo sapiens, UniProt P03952)
T1 construct: purchased R & D 2497-SE
Test: Inhibitory activity against plasma kallikrein in vitro (fluorescence intensity enzyme assay, Pro-Phe-Arg-AMC substrate)
Format: biochemical
Details: Pro-Phe-Arg-AMC substrate
Experimental: Test of the inhibitory activities of the compounds of the present invention against plasma kallikrein (PKa), KLK1 and FXIa in vitro.
The final concentrations of enzyme protein and Pro-Phe-Arg-AMC in the reaction mixture were 10 nM and 60 µM, respectively. The starting concentration of the positive reference substance Avoralstat was 100 nM, 3-fold dilution, 10 + 0 dose. 0.05 µL of compound in 100% DMSO was delivered to a 384-well plate by an acoustic liquid delivery technique (Echo665; nanoliter range). Compound duplex test. […] IC50 values and nonlinear regression curve fitting were obtained using GraphPad Prism software.

[1] = plasma kallikrein enzyme assay, read-out: PKa IC50
[2] = PKa IC50, plasma kallikrein enzyme assay

T1 sequence (P03952 391-638 limits assumed): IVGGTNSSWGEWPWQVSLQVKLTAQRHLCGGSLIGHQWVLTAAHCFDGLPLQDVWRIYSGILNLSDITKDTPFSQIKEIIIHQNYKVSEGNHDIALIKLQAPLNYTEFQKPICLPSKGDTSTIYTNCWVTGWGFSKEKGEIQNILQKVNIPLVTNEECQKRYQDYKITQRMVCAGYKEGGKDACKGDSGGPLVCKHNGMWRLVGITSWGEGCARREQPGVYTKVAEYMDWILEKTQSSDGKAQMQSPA
T1 sequence (P03952 20-390 partner limits assumed): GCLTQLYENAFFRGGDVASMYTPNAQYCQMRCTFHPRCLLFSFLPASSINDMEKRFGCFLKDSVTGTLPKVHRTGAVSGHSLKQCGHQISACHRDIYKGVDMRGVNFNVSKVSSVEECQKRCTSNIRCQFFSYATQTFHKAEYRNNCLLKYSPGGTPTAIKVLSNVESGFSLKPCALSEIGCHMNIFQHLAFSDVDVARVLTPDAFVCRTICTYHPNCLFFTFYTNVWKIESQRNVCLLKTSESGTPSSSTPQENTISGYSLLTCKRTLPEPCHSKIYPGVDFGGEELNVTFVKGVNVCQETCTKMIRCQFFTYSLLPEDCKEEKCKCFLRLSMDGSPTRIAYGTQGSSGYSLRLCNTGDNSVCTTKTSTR

IC50 [1] | IC50 [2] | Compound
> 100 nM | – | N#Cc1cc(N2CC3C(C2)C3(F)F)ccc1Cn1cnc(C(=O)NC2CCc3cc(N)ncc32)n1 (single isomer, unassigned) [Compound 53]
36.2 nM | – | Cc1cc(N)nc(C)c1CNC(=O)c1nnc(Cc2cn3cc(C4CC4)ccc3n2)o1 [Compound 17]
2.98 nM | – | COCc1nn(Cc2cn3cc(C4CC4)ccc3n2)cc1C(=O)NCc1c(C)cc(N)nc1C [Compound 21]
699 nM | – | Cc1nc(N)nc(C)c1CNC(=O)c1ncn(Cc2ccc(Cn3cc(F)ccc3=O)cc2)n1 [Compound 26]
> 1000 nM | – | Cc1cc(N)nc(C)c1CNC(=O)c1nc(Cc2ccc(Cn3ccccc3=O)cc2)nn1C [Compound 29]
> 1000 nM | – | Nc1nnc(CNC(=O)c2cnn(Cc3ccc(Cn4ccccc4=O)cc3)c2)s1 [Compound 30]
> 1000 nM | – | Cc1nc(N)ncc1CNC(=O)c1ncn(Cc2ccc(Cn3cc(F)ccc3=O)cc2)n1 [Compound 31]
> 100 nM | – | COc1ccnc(CNC(=O)c2ncn(Cc3ccc(Cn4cc(F)ccc4=O)cc3)n2)c1F [Compound 32]
523 nM | – | Nc1ncc(CNC(=O)c2cnn(Cc3ccc(Cn4ccccc4=O)cc3)c2)s1 [Compound 36]
> 100 nM | – | Nc1cc2c(cn1)[C@H](NC(=O)c1ncn(Cc3cn4cc(C5CC5)ccc4n3)n1)CC2 [Compound 45]
> 100 nM | – | Nc1cc2c(cn1)[C@@H](NC(=O)c1ncn(Cc3cn4cc(C5CC5)ccc4n3)n1)CC2 [Compound 46]
> 100 nM | – | Nc1cc2c(cn1)C(NC(=O)c1ncn(Cc3c(F)c(F)c(Cn4ccccc4=O)c(F)c3F)n1)CC2 (stereo not drawn) [Compound 51]
17.4 nM | – | Cn1cnc2c1CC[C@H]2NC(=O)c1nn(Cc2ccc(Cn3ccccc3=O)cc2)cc1C(F)F [Compound 58]
> 100 nM | – | COCc1cn(Cc2ccc(Cn3ccccc3=O)cc2)nc1C(=O)N[C@@H]1CCc2c1ncn2C [Compound 59]
16.7 nM | – | Cc1cc(N)nc(C)c1CNC(=O)c1ncn(Cc2ccc(-n3ccccc3=O)cc2)n1 [Compound 63]
62.9 nM | – | COCc1nn(Cc2ccc(CN3CCCCC3=O)cc2)cc1C(=O)NCc1nccc(OC)c1F [Compound 77]
3.72 nM | – | Cc1cc(N)nc(C)c1CNC(=O)c1ncn(Cc2ccc(CN3CCCCC3=O)cc2)n1 [Compound 78]
> 100 nM | – | Cn1cnc2c1CC[C@H]2NC(=O)c1ncn(Cc2ccc(CN3CCCCC3=O)cc2)n1 [Compound 79]
77 nM | – | C#Cc1nn(Cc2ccc(Cn3ccccc3=O)cc2)cc1C(=O)NCc1c(C)cc(N)nc1C [Compound 81]
26.6 nM | – | Nc1cc2c(cn1)[C@@H](NC(=O)c1ncn(Cc3ccc(Cn4ccccc4=O)cc3)n1)CO2 [Compound 82]
64.7 nM | – | Cc1cc(N)nc(C)c1CNC(=O)c1nc(Cc2ccc(Cn3ccccc3=O)cc2)ns1 [Compound 84]
58.7 nM | – | C#Cc1nn(Cc2ccc(Cn3ccccc3=O)cc2)cc1C(=O)NCc1nccc(OC)c1F [Compound 85]
21.2 nM | – | COCc1nn(Cc2ccc(N3CC4C(C3)C4(F)F)cc2C#N)cc1C(=O)NCc1cc2cnccc2[nH]1 (stereo not drawn) [Compound 86]
20.1 nM | – | COc1ccnc(CNC(=O)c2cc(Cc3ccc(Cn4ccccc4=O)cc3)cn2C)c1F [Compound 88]

IC50 [1] | IC50 [2] | Compound
> 100 nM | – | COCc1nn(Cc2ccc(N3CCOCC3=O)cc2)cc1C(=O)NCc1nccc(OC)c1F [Compound 89]
3.09 nM | – | COc1ccnc(CNC(=O)c2cn(Cc3ccc(Cn4ccccc4=O)cc3)nc2C(F)(F)F)c1F [Compound 90]
> 100 nM | – | COCc1nn(Cc2ccc(CC3CC3)cc2)cc1C(=O)NCc1nccc(OC)c1F [Compound 91, 1-(4-(cyclopropylmethyl)benzyl)-N-((3-fluoro-4-methoxypyridin-2-yl)methyl)-3-(methoxymethyl)-1H-pyrazole-4-carboxamide]
> 100 nM | – | COCc1nn(Cc2ccc(-n3ccccc3=O)cc2)cc1C(=O)NCc1nccc(OC)c1F [Compound 92]
> 100 nM | – | COCc1nn(Cc2ccc(-n3ccccc3=O)cc2)cc1C(=O)NC1CCc2c1ncn2C (stereo not drawn) [Compound 96]
503 nM | – | COCc1nn(Cc2ccc(-n3ccccc3=O)cc2)cc1C(=O)NCc1cc2ccncc2[nH]1 [Compound 97]
245 nM | – | COCc1nn(Cc2ccc(Cn3ccc4ncccc43)cc2)cc1C(=O)NCc1nccc(OC)c1F [Compound 98]
> 100 nM | – | Cc1cc(Cl)nc(C)c1CNC(=O)c1ncn(Cc2ccc(Cn3ccccc3=O)cc2)n1 [Compound 100]
> 100 nM | – | COCc1nn(Cc2ccc(CN3CCCCCC3)cc2)cc1C(=O)NCc1nccc(OC)c1F [Compound 102]
> 100 nM | – | COCc1nn(Cc2ccc(CN3CC(F)(F)C3)cc2)cc1C(=O)NCc1nccc(OC)c1F [Compound 103]
> 100 nM | – | COCc1nn(Cc2ccc(N3CC4C(C3)C4(F)F)cc2C#N)cc1C(=O)NCc1cn2c(n1)CNCC2 (stereo not drawn) [Compound 104]
> 100 nM | – | COCc1nn(Cc2ccc(-n3ccccc3=O)cc2)cc1C(=O)NCc1nc2c(s1)CNCC2 [Compound 107]
36.8 nM | – | COCc1nn(Cc2ccc(Cn3ccccc3=O)cc2)cc1C(=O)NCc1cc2cnccc2[nH]1 [Compound 108]
> 100 nM | – | COCc1nn(Cc2ccc(N3CCOCC3=O)cc2)cc1C(=O)NCc1cn2c(n1)CNCC2 [Compound 112]
> 100 nM | – | COCc1nn(Cc2ccc(Cn3ccccc3=O)cc2)cc1C(=O)NCc1c(C)cncc1C [Compound 114]
> 100 nM | – | O=C(NCc1cc2cnccc2[nH]1)c1cn(Cc2ccc(Oc3ccccc3)cc2)nc1C(F)(F)F [Compound 115]
> 1000 nM | – | COCc1nn(Cc2ccc(Oc3ccccc3)cc2)cc1C(=O)NCc1nccc(OC)c1F [Compound 117]
> 1000 nM | – | COCc1nn(Cc2ccc(Cn3ccccc3=O)cc2)cc1C(=O)NCc1cn2ccc(Cl)c(F)c2n1 [Compound 120]
124 nM | – | O=C(NCc1cc2cnccc2[nH]1)c1nc(Cc2ccc(Cn3ccccc3=O)cc2)ns1 [Compound 122]
29.5 nM | – | O=C(NCc1cc2cnccc2[nH]1)c1cn(Cc2ccc(Cn3ccccc3=O)cc2)nc1C(F)(F)F [Compound 123]
> 1000 nM | – | COc1ccnc(CNC(=O)c2cn(Cc3ccc(CN4CC(F)(F)C4)cc3)nc2C(F)(F)F)c1F [Compound 124]
329 nM | – | COCc1nn(Cc2ccc(Oc3ccccc3)cc2)cc1C(=O)NCc1ccc2nccn2c1 [Compound 125]
229 nM | – | COCc1nn(Cc2ccc(Cn3ccccc3=O)cc2)cc1C(=O)NCc1ccc2nccn2c1 [Compound 126]
406 nM | – | COCc1nn(Cc2ccc(N3CC4C(C3)C4(F)F)cc2C#N)cc1C(=O)NCc1nc2c(s1)CNCC2 (stereo not drawn) [Compound 129]

IC50 [1] | IC50 [2] | Compound
27.9 nM | – | CCn1cnc2c1CC[C@@H]2NC(=O)c1cn(Cc2ccc(Cn3ccccc3=O)cc2)nc1COC [Compound 131]
– | 7.29 nM | COCc1nn(Cc2ccc(Cn3ccccc3=O)cc2)cc1C(=O)NCc1nccc(SC)c1F [Compound 132]
4.47 nM | – | N=C(N)c1ccc(CNC(=O)c2cn(Cc3ccc(Oc4ccccc4)cc3)nc2C(F)(F)F)cc1 [Compound 134]
131 nM | – | COCc1nn(Cc2ccc(Cn3ccccc3=O)cc2)cc1C(=O)NCc1cc2ccncc2n1C [Compound 135]
36.2 nM | – | COCc1nn(Cc2ccc(Cn3ccccc3=O)cc2)cc1C(=O)NCc1[nH]c2cnccc2c1Cl [Compound 136]
> 1000 nM | – | COCc1nn(Cc2ccc(CN3C(=O)C4(CC4)c4ccc(F)cc43)cc2)cc1C(=O)NCc1nccc(OC)c1F [Compound 138]
12.6 nM | – | COCc1nn(Cc2ccc(Cn3ccccc3=O)cc2)cc1C(=O)NCc1cc2cnccc2n1C [Compound 139]
78 nM | – | COCc1nn(Cc2ccc(Cn3c(=O)sc4ccccc43)cc2)cc1C(=O)NCc1nccc(OC)c1F [Compound 140]
> 1000 nM | – | COCc1nn(Cc2ccc(Oc3ccccc3)cc2)cc1C(=O)NCc1ccn2ccnc2c1 [Compound 141]
– | 25.9 nM | COCc1nn(Cc2ccc(Cn3ccccc3=O)cc2)cc1C(=O)NCc1ncc2c(n1)CNC2 [Compound 144]
> 1000 nM | – | COCc1nn(Cc2ccc(-n3ccccc3=O)cc2)cc1C(=O)NCc1cn2c(n1)CNCC2 [Compound 145]
347 nM | – | Cc1[nH]c(C(=O)NCc2cc3cnccc3[nH]2)c(C)c1Cc1ccc(Cn2ccccc2=O)cc1 [Compound 148]
544 nM | – | COc1ccnc(CNC(=O)c2[nH]cc(Cc3ccc(Cn4ccccc4=O)cc3)c2C)c1F [Compound 151]
594 nM | – | COCc1nn(Cc2ccc(Cn3ccccc3=O)cc2)cc1C(=O)NCc1nc2c(s1)CNCC2 [Compound 152]
68.8 nM | – | COCc1nn(Cc2ccc(Cn3ccccc3=O)cc2)cc1C(=O)NCc1c(Cl)c2ccncc2n1C [Compound 154]
– | 669 nM | O=C(NCc1ncc2c(n1)CNC2)c1cn(Cc2ccc(Cn3ccccc3=O)cc2)nc1C(F)(F)F [Compound 156]
93.8 nM | – | COCc1nn(Cc2ccc(Cn3c(=O)ccc4ccccc43)cc2)cc1C(=O)NCc1nccc(OC)c1F [Compound 159]
413 nM | – | COCc1nn(Cc2ccc(Cn3c(=O)sc4cccc(F)c43)cc2)cc1C(=O)NCc1nccc(OC)c1F [Compound 160]
12.7 nM | – | COCc1nn(Cc2ccc(Cn3ccccc3=O)cc2)cc1C(=O)NCc1cc2cnccc2n1C [Compound 161]
8.68 nM | – | COCCOCc1nn(Cc2ccc(Cn3ccccc3=O)cc2)cc1C(=O)NCc1nccc(OC)c1F [Compound 162]
26.3 nM | – | COc1ccnc(CNC(=O)c2cn(Cc3ccc(Cn4ccccc4=O)cc3)nc2COCC(=O)N(C)C)c1F [Compound 164]
34.5 nM | – | COc1ccnc(CNC(=O)c2cn(Cc3ccc(Cn4ccccc4=O)cc3)nc2-c2cnc(O)nc2)c1F [Compound 165]
4.59 nM | – | Cc1cnn(C)c1-c1nn(Cc2ccc(Cn3ccccc3=O)cc2)cc1C(=O)NCc1nccc(N(C)C)c1F [Compound 166]
11.9 nM | – | COc1ccnc(CNC(=O)c2cn(Cc3ccc(Cn4ccccc4=O)cc3)nc2CN2CCCC2=O)c1F [Compound 169]
